{
  "source": "patent US20200397860A1",
  "about": "“SLIT AND BONE GROWTH MODULATION” (Cornell University, priority 2018, published 2020)",
  "key": {"[1]": {"system": "bone marrow endothelial progenitor outgrowth cells (EPOCs)", "assay": "Matrigel tube formation assay", "assay_type": "cell-based, mouse", "conditions": "EPOCs transduced with YAP shRNA", "procedure": "Mouse bone marrow derived late-stage endothelial progenitor outgrowth cells (EPOCs) were obtained from BioChain (7030031) and cultured in growth medium (BioChain Z7030035) as described previously (Xie et al. 2014). Endothelial cell migration assay was set up in Trans well-24 well plates with 8-um pore filters. Briefly, 1×10^5 cells/well after 1-hour serum starvation were seeded in the upper chamber, then incubated with conditioned medium from osteoblasts and control in the lower chambers for a further 3 h. The cells in the upper surface of each filter were removed with cotton swabs. The cells that migrated into the lower surface were fixed with 4% PFA for 30 min and then stained with crystal violet. The cell numbers were quantified by counting a centered microscope field per each filter (5 wells for each condition). Endothelial cell wound healing assays were conducted in 12-well plates precoated with gelatin (Stemcell Technologies). 3×10^5 cells/well were plated overnight and stimulated with a wound in the form of a single linear scratch made with a yellow pipette tip. After gently washing the well twice, cells were cultured in medium with SLIT3 or vehicle. At 6 and 12 hours after injury, cells were stained by 0.5% crystal violet and photographed. The width of the wound area was quantitatively evaluated using ImageJ (see website at rsb.info.uih.gov/ij/download.html). Endothelial cell proliferation assays were conducted in 96-well plates pre-coated with gelatin (Stemcell Technologies). EPOCs (3×10^4 cells/well) were seeded in the medium with a serial dilution of SLIT3 protein or vehicle in plates. At 0, 24, 48 hours after seeding, cells were incubated with 10-fold diluted Alamar Blue solution (Thermo Fisher) and the supernatant was evaluated with a spectrophotometer (Thermo) (5 wells for each condition). Endothelial cell tube formation assay was conducted in 96-well plates pre-coated with Matrigel (BD). After 1 h serum starvation, EPOCs (3×10^4 cells/well) were seeded in conditioned medium dilution or control medium on polymerized Matrigel in plates. Alter 5 hours incubation at 37° C., the number of tube branches each well was observed and quantified by counting four random fields per well with microscopy (5 wells for each condition)."}, "[2]": {"system": "murine ovariectomy (OVX) model of postmenopausal osteoporosis", "assay": "Ovariectomy (OVX) induced bone loss, prophylactic model", "assay_type": "in vivo, mouse", "conditions": "L3 vertebrae", "procedure": "Micro-CT (μCT) analysis was conducted on a Scanco Medical μCT 35 system at the Citigroup Biomedical Imaging Core using the previously described parameters. (Shim et al. 2013). μCT analysis was performed by an investigator blinded to the genotypes of the animals under analysis.\nFor histomorphometry, mice were injected with calcein (25 mg/kg, Sigma), and undecalcified sections of the lumbar vertebrae were stained using von Kossa and TRAP as described by Fukuda et al. (2013). Static and dynamic histomorphometric analysis was performed with using the Osteomeasure Analysis System (Osteometrics) following standard nomenclature as described (Dempster et al. 2013). Bone volume/total volume (BV/TV), bone formation rate/bone surface (BFR/BS, μm^3 […] yr^−1), mineral apposition rate (MM, um Day^−1), osteoblast surface/bone surface (Ob.S/BS, %) and osteoclast number/bone perimeter (No. OC/Bpm) were analyzed.\nFor the prophylactic model, 12-week-old female mice (JAX) were anesthetized and bilaterally ovariectomized or sham operated. Ovariectomized mice were given twice weekly intravenous injections of 1 mg per kg body weight of SLITS or vehicle or daily subcutaneous (sc) injections of 80 ug/kg PTH (1-34) for 6 weeks starting 2 weeks after ovariectomy. […] All mice were then randomly assigned to one of four groups: Sham, OVX+vehicle, OVX+SLITS and OVX+PTH. Three days after the last injection, all of the mice were euthanized and subjected to bone analysis as described earlier."}, "[3]": {"system": "CD31^hiEMCN^hi endothelium", "assay": "Flow cytometry of skeletal CD31hiEMCNhi endothelium in femurs after IV injection", "assay_type": "in vivo, mouse", "conditions": "8-week-old B6 mice, twice weekly IV 1 mg/kg, 21 days, femur", "procedure": "Femur and tibia were dissected from mutant mice and control groups after removing surrounding connective tissues. The metaphysis region and diaphysis regions of bone was crushed in Hanks Balanced Salt Solution (Life Technologies) containing 10 mM HOPES (pH 7.2) (CellGro) and enzymatically digested with 2.5 mg/mL Collagenase A (Roche) and 1 unit/mL Dispase II (Roche) for 15 minutes at 37° C. under gentle agitation. The resulting cell suspensions were filtered (40 μm), washed using PBS (pH 7.2) containing 0.5% BSA (Fraction V) and 2 mM EDTA. After washing, equal numbers of cells per mouse were blocked with Purified Rat Anti-Mouse CD16/CD32 (BD Biosciences) for 30 min on ice, then stained with APC-conjugated EMCN antibody (ebioscience 50-5851-80), PE-conjugated CD31 (ebioscience 12-0311-81). FITC-conjugated CD45 (Tonbo 35-0451), APC/Cy7-conjugated Ter119 (Biolegend 116223) and PerCP-Cy5.5-conjugated CD146 (BD Biosciences 562231) for 45 min on ice. After washing, cells were resuspended in PBS (pH 7.2) with 2 mM EDTA and 1 μg/mL 4-6,Diamidino-2-Phenylindole (DAPI) (live/dead exclusion) for analysis on an LSRII flow cytometer system (BD Biosciences) cytometer and analyzed using FlowJo software (TreeStar). Cell sorting was performed with a FACS Aria II SORP cell sorter (Becton Dickinson) at Weill Cornell Medical College, with exclusion of DAPI^+ cells and doublets. […]"}},
  "data": [
    {"substance": "FGF2: FGF2, positive control inducer of tube formation [reference compound]", "values": [
      {"measurement": "ability to induce tube formation after shRNA-mediated knockdown of YAP", "setting": "[1]", "value": "not"}
    ]},
    {"substance": "PTH: parathyroid hormone PTH (1-34), daily subcutaneous injections, comparator in OVX model (SVSEIQLMHNLGKHLNSMERVEWLRKKLQDVHNF; Parathyroid hormone; UniProt P01270 32-65, looked up, fragment) [reference compound]", "values": [
      {"measurement": "endosteal CD31hiEMCNhi endothelium after OVX", "setting": "[2]", "value": "reversed the attenuation"},
      {"measurement": "endosteal bone formation", "setting": "[2]", "value": "rescued"}
    ]},
    {"substance": "SLIT2: recombinant SLIT2 protein, SLIT family ligand", "values": [
      {"measurement": "levels of skeletal CD31hiEMCNhi endothelium in vivo", "setting": "[3]", "value": "increased formation"}
    ]}
  ]
}
